The results in this text go back to ChEMBL document CHEMBL1126649, “Development of a pharmacophore for inhibition of human liver cytochrome P-450 2D6: molecular modeling and inhibition studies” (J Med Chem, 1993).

Data set [1] addresses T1, Cytochrome P450 2D6 (Homo sapiens, UniProt P10635). The experiment in a line: Inhibitory effect on Bufuralol 1'-hydroxylation by human liver microsomes (Ki = apparent inhibition constant). The class given is ADME, Microsome. Background: Microsomes from liver hold many membrane-bound enzymes, among them those of drug oxidation.
Data set [2] addresses T1, Cytochrome P450 2D6.
Data set [3] has as its target T1, Cytochrome P450 2D6. The source holds these as a separate data set.
The target in data set [4] is T1, Cytochrome P450 2D6. This is another data set of the same source.
The target in data set [5] is T1, Cytochrome P450 2D6. The experiment in a line: Inhibition of partially purified cytochrome P450 2D6 1'-hydroxybufuralol formation.
Data set [6] deals with T1, Cytochrome P450 2D6. In words: Apparent inhibitory constant (Ki) for Bufuralol 1'-hydroxylation by human liver microsomes. The class given is ADME, Microsome.
The target of data set [7] is T1, Cytochrome P450 2D6. The source holds these as a separate data set.
The target in data set [8] is T1, Cytochrome P450 2D6. The source holds these as a separate data set.
For data set [9], the target named is T1, Cytochrome P450 2D6. The experiment in a line: Inhibitory constant for cytochrome P450 2D6. The class given is ADME.
The target in data set [10] is T1, Cytochrome P450 2D6. The source holds these as a separate data set.

T1 sequence (P10635 whole entry): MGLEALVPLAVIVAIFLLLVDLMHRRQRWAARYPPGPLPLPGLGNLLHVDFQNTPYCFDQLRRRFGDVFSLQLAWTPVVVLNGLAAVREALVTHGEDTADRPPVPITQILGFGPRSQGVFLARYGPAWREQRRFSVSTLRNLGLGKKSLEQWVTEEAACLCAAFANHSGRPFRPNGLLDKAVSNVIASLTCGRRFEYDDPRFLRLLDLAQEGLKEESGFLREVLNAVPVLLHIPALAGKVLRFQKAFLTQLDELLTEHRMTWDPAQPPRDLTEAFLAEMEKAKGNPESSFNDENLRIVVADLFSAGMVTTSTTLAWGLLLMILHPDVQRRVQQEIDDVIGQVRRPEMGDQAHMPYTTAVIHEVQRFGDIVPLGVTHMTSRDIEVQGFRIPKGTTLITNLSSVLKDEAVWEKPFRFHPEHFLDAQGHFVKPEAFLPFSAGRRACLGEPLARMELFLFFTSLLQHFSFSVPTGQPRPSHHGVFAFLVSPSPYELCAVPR

Turning to `C=CC1C[N+]2(c3ccccc3)CCC1CC2C(O)c1ccnc2ccc(OC)cc12` (centres undefined), the Ki on Cytochrome P450 2D6 [1] was 25 µM.

`COc1ccc2[nH]cc(CCO)c2c1`: the Ki at Cytochrome P450 2D6 [1] was determined as 100 µM.

Consider `COc1ccc2ncccc2c1`, for which the Ki on Cytochrome P450 2D6 [1] is greater than 1000 µM.

Regarding `CC1OC=C(CO)[C@H]2C[C@H]3c4[nH]c5ccccc5c4CCN3CC12` (some centres undefined), on Cytochrome P450 2D6 [1], the Ki worked out at 1.1 µM.

Turning to `C=CC1CN2CCC1CC2C(=O)c1ccnc2ccc(OC)cc12` (centres undefined), the Ki on Cytochrome P450 2D6 [1] was determined as 0.72 µM.

As to `C=CC1CN2CCC1C[C@H]2[C@H](O)c1ccnc2ccc(Cl)cc12` (some centres undefined), the Ki at Cytochrome P450 2D6 [1] was determined as 3.5 µM.

Take `COC(=O)C1=CO[C@H](C)[C@H]2CN3CCc4c([nH]c5ccccc45)[C@@H]3C[C@H]12`: the Ki on Cytochrome P450 2D6 [1] was 0.017 µM.

For the compound `CCC1CN2CCC1CC2[C@H](O)c1ccnc2ccccc12` (some centres undefined), the Ki amounted to 24 µM on Cytochrome P450 2D6 [2], 9.6 µM at Cytochrome P450 2D6 [3] and 8 µM on Cytochrome P450 2D6 [4].

In the case of `C=CC1CN2CCC1C[C@@H]2[C@@H](O)c1ccnc2ccc(Cl)cc12` (some centres undefined), the Ki at Cytochrome P450 2D6 [1] was determined as 0.52 µM.

Turning to `COC(=O)C1=CNC(C)C2CN3CCc4c([nH]c5ccccc45)[C@@H]3C[C@H]12` (some centres undefined), at Cytochrome P450 2D6 [1], the Ki was 2.9 µM.

On to `O=C(O)[C@H]1[C@H]2C[C@H]3c4[nH]c5ccccc5c4CCN3C[C@@H]2CC[C@H]1O`, for which the Ki on Cytochrome P450 2D6 [1] amounted to 6.3 µM.

For the compound `COC(=O)C1=CO[C@@H](C)[C@H]2C[n+]3ccc4c([nH]c5ccccc54)c3C[C@H]12`, on Cytochrome P450 2D6 [1], the Ki amounted to 2.2 µM.

Consider `CCC1CN2CCC1CC2C(O)c1ccnc2ccccc12` (centres undefined), for which the Ki at Cytochrome P450 2D6 [2] was determined as 3.2 µM; on Cytochrome P450 2D6 [3] it was 2.8 µM; at Cytochrome P450 2D6 [4] it was 1.6 µM.

For `C=CC1CN2CCC1C[C@@H]2[C@@H](O)c1ccnc2ccccc12` (stereo in doubt; 9b), the Ki on Cytochrome P450 2D6 [2] was 5.4 µM; on Cytochrome P450 2D6 [3] it was 3.5 µM; on Cytochrome P450 2D6 [5], 2.6 µM; on Cytochrome P450 2D6 [6] it was 3.5 µM; on Cytochrome P450 2D6 [4], 3.5 µM; at Cytochrome P450 2D6 [7], 1 µM.

As to `C=CC1CN2CCC1C[C@@H]2[C@@H](O)c1ccnc2ccccc12` (stereo in doubt; 10b), the Ki at Cytochrome P450 2D6 [1] is 7.5 µM; at Cytochrome P450 2D6 [2], 16 µM; on Cytochrome P450 2D6 [3], 7.3 µM; on Cytochrome P450 2D6 [5], 25 µM; at Cytochrome P450 2D6 [8], 9.3 µM; on Cytochrome P450 2D6 [4], 7.5 µM.

As to `COC(=O)C1=CO[C@@H](C)[C@H]2C=[N+]3CCc4c([nH]c5ccccc45)[C@@H]3C[C@H]12` [CATHENAMINE], at Cytochrome P450 2D6 [1], the Ki turned out to be 3.2 µM.

`CCC1CN2CCC1CC2[C@@H](O)c1ccnc2ccc(OC)cc12` (some centres undefined) [DIHYDROQUINIDINE]: on Cytochrome P450 2D6 [1], the Ki worked out at 0.066 µM.

On to `Cc1nccc2c1[nH]c1ccccc12` [HARMAN], for which the Ki on Cytochrome P450 2D6 [1] came out at 86 µM.

Turning to `CC[C@H]1CN2CC[C@H]1C[C@H]2[C@H](O)c1ccnc2ccc(OC)cc12` [HYDROQUININE], on Cytochrome P450 2D6 [1], the Ki turned out to be 4 µM.

`CN1[C@@H](CC(=O)c2ccccc2)CCC[C@H]1C[C@H](O)c1ccccc1` [LOBELINE] gave a Ki at Cytochrome P450 2D6 [9] of 0.12 µM.

Consider `CC(C)N1CCC(c2ccccc2)(c2ccccc2)CC1` [PRODIPINE], for which, on Cytochrome P450 2D6 [9], the Ki was found to be 0.0048 µM.

As for `c1ccc2c(c1)[n-]c1c3[n+](ccc12)CC1CCCCC1C3` (centres undefined) [SEMPERVIRINE], the Ki on Cytochrome P450 2D6 [1] came to 9.7 µM.

With `COC(=O)C1=CO[C@@H](C)[C@@H]2CN3CCc4c([nH]c5ccccc45)[C@@H]3C[C@H]12` [TETRAHYDROALSTONINE], on Cytochrome P450 2D6 [1], the Ki came out at 1.1 µM.

On to RAUWOLFIA SERPENTINA, for which the Ki at Cytochrome P450 2D6 [10] and at Cytochrome P450 2D6 [6] was 0.0046 µM in each case.
